# Data from patent publication US11246961B2, “Engineered scaffolds for vascularized tissue repair” (The Regents of the University of California, priority 2016, dated 2022).
# Legend:
# HECFCs = experiment: flow cytometry ligand-cell binding, HECFCs; parameters: species or system human; conditions: biotinylated ligand 1 μM, streptavidin-phycoerythrin
# Protocol: (§1) FIG. 10 presents flow cytometry data from an assay of binding affinity of LXW7 and GRGD (SEQ ID NO: 1) to different cell types. Tests included EPCs/ECs from different sources, including HECFCs (A), HCAECs (B), HMVECs (C), and THP-1 monocytes (D), Platelets (E), as well as K562 cells engineered to highly express αvβ3 (αvβ3-K562, F), and αIIbβ3 (αIIbβ3-K562, G). Cells were incubated with the LXW7-bio, GRGD-bio (SEQ ID NO: 1), or D-Biotin peptide and subsequently incubated with streptavidin-phycoerythrin. Flow cytometry analysis was performed to determine the binding affinity of the ligands. Samples treated with D-biotin were used as negative controls.
# (§2) LXW7-bio (1 μM) was incubated with 3×10^5 HECFCs, HCAECs, HMVECs, αvβ3-K562 and αIIbβ3-K562 cells and THP-1 monocytes and 1×10^8 platelets in binding buffer (HEPES containing 10% FBS) on ice for 30 minutes. The samples were washed three times with DPBS containing 1% FBS and incubated with 2 μg/ml of streptavidin-phycoerythrin on ice for 30 minutes and then washed with DPBS. Samples were analyzed on a BD Fortessa LSR Cell Analyzer and further data analysis and gating were performed using FlowJo software (Treestar, Inc.).
# HCAECs [1] = experiment: flow cytometry ligand-cell binding, HCAECs; parameters: species or system human; conditions: biotinylated ligand 1 μM, streptavidin-phycoerythrin
# Protocol: as §1, §2
# HCAECs [2] = experiment: attachment assay on ligand treated culture surfaces, HCAECs; type: cell-based, human; conditions: 10 minutes
# Excerpt: Ligands LXW7, LXY30, and LLP2A were synthesized as in U.S. Pat. No. 9,073,974. Biotinylated LXW7 (LXW7-bio) and biotinylated GRGD (GRGD-bio) (SEQ ID NO: 1) were synthesized using established solid phase peptide synthesis protocols (Xiao et al. (2010) Mol Cancer Therapeutics 9:2714). Peptide-bio was designed to have biotin attached to the side chain of Lys, with two hydrophilic linkers between peptide and Lys (biotin). To modify culture surface with ligands, target culture wells in a 24-well plate were coated with 500 μL of 20 μg/mL Avidin (Thermo Fisher Scientific), and incubated for 1 hour at 37° C. Avidin coated wells were rinsed three times with DPBS and were treated with 500 μL molar equivalents (2 μM) of D-biotin (Thermo Fisher Scientific), LXW7-bio, or GRGD-bio (SEQ ID NO: 1). After 1 hour, the wells were washed three times with DPBS and blocked with 1% bovine serum albumin (BSA; Thermo Fisher Scientific) for 1 hour. After the wells were rinsed three times with DPBS, for cell attachment assay, 5×10^4 HCAECs and THP-1 monocytes suspended in the respective maintenance medium were added to the wells and incubated for 10 minutes or 16 hours at 37° C., 5% CO2, respectively. After each time point the wells were washed three times with DPBS, and the adhered cells were fixed in 10% formalin (Azer Scientific) for 20 minutes. For platelets attachment assay, the PRP was centrifuged, and the platelet pellet was resuspended in 1% BSA with 2 mM CaCl2 and 1 mM MgCl2 to achieve a final concentration of 1×10^8 platelets/mL, added to the wells at a density of 5×10^7 platelets/cm^2, and incubated for 16 hours at 37° C., 5% CO2. The wells were washed three times with DPBS, and the adhered cells were fixed in 10% formalin for 20 min. The HCAECs wells were washed with DPBS again and blocked for 1 hour with 1% BSA. An additional wash was performed, and the plate was incubated overnight with mouse anti-PECAM-1 antibody (1:100; Abcam) in 1% BSA at 4° C. […] Five images were randomly taken from each sample and quantification of images was performed using the Image J software (NIH).
# HCAECs [3] = experiment: MTS assay of EC proliferation on LXW7; type: cell-based, human; conditions: vs D-biotin treated surface; up to 5 days
# Protocol: The 96-well plates from Example 3 were treated with 1 μM Avidin solution for 1 hour at room temperature. Avidin coated wells were rinsed three times with DPBS and treated with LXW7-bio (1 μM), with D-biotin (1 μM) serving as the control. After 1 hour, the wells were washed three times with DPBS and blocked with 1% BSA for 1 hour. 3×10^3 viable HCAECs were seeded per well and cultured in EGM-2 media for 5 days. MTS assay was performed at each day as per the manufacturer instructions (Interchim) and analyzed on SpectraMax-3 plate reader (Molecular Devices).
# VEGFR2 (Tyr1175) = experiment: Western-blot analysis, phosphorylation of VEGFR2; type: cell-based, human; conditions: LXW7 treated surface, 96 hours, vs D-biotin
# Protocol: The 100-mm dishes from Example 2 were treated with Avidin followed by LXW7-bio or D-biotin as described in Example 5. 8×10^5 HCAECs were seeded per dish and cultured in EGM-2 media for 4 days. Cells were lysed using Extraction Kit (Thermo Fisher Scientific) and protein concentrations were determined using BCA Protein Assay (Thermo Fisher Scientific). Fifteen μg of each sample were loaded and separated using a 4-12% Bis-Tris NuPAGE gel (Thermo Fisher Scientific) and transferred to a nitrocellulose membrane. The membrane was blocked in 5% BSA in TBST (Tris-buffered saline with 0.5% Tween-20), and subsequently incubated with primary antibodies anti-VEGF Receptor 2, anti-Phospho-VEGF Receptor 2, anti-p44/42 MAPK (Erk1/2) and anti-Phospho-p44/42 MAPK (Erk1/2) (Thr202/Tyr204), all purchased from Cell Signaling Technologies, in 1% BSA overnight at 4° C. After washing three times with TBST, the membranes were incubated with respective horseradish peroxidase-conjugated secondary antibodies in 1% non-fat dry milk in TBST (BioRad) for 1 hour at room temperature. After washing, the protein bands were visualized using West Dura Substrate (Thermo Fisher Scientific) and quantified using Image J software.
# VEGFR-2 = experiment: mRNA level of VEGFR-2 on EPCs; type: cell-based; conditions: EPCs treated with LXW7
# Protocol: FIG. 15 presents graphs of mRNA levels of VEGFR-2 (A) and EGFR (B) on EPCs after treating with different concentrations of LXW7 for 48 h. *P<0.05 vs. Control, #P<0.05 vs. 25 nM (n=10 per group).
substance,measurement,setting,value
cGRGDdvc [LXW7],binding affinity to HECFCs by flow cytometry,HECFCs,higher binding affinity with different types of EPCs/ECs than conventional GRGD peptide
same,binding affinity to HCAECs by flow cytometry,HCAECs [1],higher binding affinity with different types of EPCs/ECs than conventional GRGD peptide
same,attachment of HCAECs on ligand treated surface,HCAECs [2]; avidin + biotinylated ligand 2 μM,bound to both LXW7 and GRGD
same,"number of attached HCAECs, LXW7 vs GRGD surface",HCAECs [2]; quantified,attracted more HCAECs than the GRGD-modified
same,EC proliferation on LXW7 treated surface (MTS),HCAECs [3],significantly promoted EC proliferation after 48 hours in culture
same,phosphorylation of VEGFR2 (Tyr1175) in ECs,VEGFR2 (Tyr1175),significantly increased
same,VEGFR2 mRNA level,VEGFR-2,increases in VEGFR2 and EGFR mRNA levels were found to be dependent on treatment time
